System: Plasmodium falciparum
Assay: GSK_TCMDC: Inhibition of Plasmodium falciparum 3D7 in whole erythrocytes, using parasite LDH activity as an index of growth.
Format: functional, organism-based
Conditions: Plasmodium falciparum, 3D7

## O=c1nc(C=Cc2ccc(Br)cc2)oc2ccccc12
  XC50: 1050 nM

## FC(F)(F)c1ccc2[nH]c(-c3ccc(-c4cccc(CNCC5CCCO5)c4)cc3)nc2c1 (stereo not given)
  XC50: 250 nM

## Cc1cc(NC(=O)c2ccco2)ccc1OC1CCN(Cc2ccc(F)cc2)CC1
  XC50: 588 nM

## Nc1nc2c(c(=O)[nH]1)CN(S(=O)(=O)c1ccc(C(=O)N[C@@H](CCC(=O)O)C(=O)O)cc1)CC2
  XC50: 146 nM

## CCCCCN1CCCC(NS(=O)(=O)c2ccc(C(=O)Nc3cccc(C(F)(F)F)c3)cc2)C1 (stereo not given)
  XC50: 795 nM

## C#CCCC(=O)Nc1cccc(-c2cccc(-c3nc4cccc(C)c4[nH]3)c2)c1
  XC50: 736 nM

## Cc1cccc(C(=O)Nc2ccnc(N3CCC(N(C)Cc4cccc(O)c4)CC3)c2)c1
  XC50: 920 nM

## O=C(Nc1cccc(-c2ccc(-c3nc4cc(F)ccc4[nH]3)cc2)c1)c1csnn1
  XC50: 278 nM

## COc1cc(OC)cc(-c2nn(-c3ccc([N+](=O)[O-])cc3Cl)c(=S)n2CC2CCCO2)c1 (stereo not given)
  XC50: 961 nM

## N=C(N)NC(=O)Nc1cc(Cl)c(Cl)c(Cl)c1
  XC50: 588 nM

## COc1cc(OC)cc(-c2nn(-c3ccc([N+](=O)[O-])cc3C#N)c(=S)n2CC2CCCO2)c1 (stereo not given)
  XC50: 852 nM

## Nc1nc(Nc2ccc(Cl)cc2)nc2ccccc12
  XC50: 732 nM

## COc1ccc2nc(C)cc(Nc3ccc(N4CCN(C)CC4)cc3)c2c1
  XC50: 788 nM

## Cc1cnc(NCCc2ccc(F)cc2)nc1NCCC(=O)Nc1ccccc1
  XC50: 946 nM

## c1cc(OCCN2CCCC2)ccc1CNC1CCN(CC2CCCCC2)CC1
  XC50: 845 nM

## Oc1ccc(Nc2nc(N3CCCC3)c3ccccc3n2)cc1
  XC50: 270 nM

## N#Cc1ccc(NC(=O)Nc2ccc(OC(F)(F)F)cc2)cc1
  XC50: 819 nM

## c1ccc(CCNCc2cccc(-c3ccccc3CNCc3ccc4c(c3)OCO4)c2)nc1
  XC50: 968 nM

## CC(C)NCc1ccc(-c2ccc(CN3CCCC(c4ccccc4)C3)cc2)c(C(=O)NCC2CCCCC2)c1 (stereo not given)
  XC50: 722 nM

## c1ccc(CN2CCN(CCCCNc3c4ccccc4nc4ccccc34)CC2)cc1
  XC50: 117 nM

## COc1ccc2nccc([C@@H](O)CN3CCC(NC(=O)/C=C/c4cccc(NC(C)=O)c4)CC3)c2c1
  XC50: 963 nM

## COc1ccc(CNC2CCN(C)CC2)cc1-c1ccc(S(=O)(=O)NC2CCC2)cc1
  XC50: 882 nM

## FC(F)(F)c1ccc2[nH]c(-c3cccc(-c4cccc(CN5CCN(c6ccncc6)CC5)c4)c3)nc2c1
  XC50: 158 nM

## COc1cc2nc(NCCc3ccccc3)nc(NCCCc3ccccc3)c2cc1OC
  XC50: 158 nM

## CN1CCN(c2cccc(-c3nnc(-c4cccc(OCC(=O)NCc5ccc(C(F)(F)F)cc5)c4)o3)c2)CC1
  XC50: 759 nM

## N#CC(c1ccc(Br)cc1)c1ccc2c(C(F)(F)F)cc(C(F)(F)F)nc2n1 (stereo not given)
  XC50: 440 nM

## Nc1c(Cl)cc(C(O)CNCCCCCOCCc2ccc3occc3c2)cc1Cl (stereo not given)
  XC50: 690 nM

## COc1cccc(-c2nn(C)c3sc(C(=O)Nc4cccnc4)cc23)c1
  XC50: 948 nM

## O=C(Nc1ccccc1)N(Cc1cccc(-c2cccc(CNCc3ccc4c(c3)OCO4)c2)c1)C1CCN(Cc2ccccc2)CC1
  XC50: 281 nM

## CCCCOc1ccc(-n2c(Nc3ccccc3)nc3cc(S(N)(=O)=O)ccc32)cc1
  XC50: 887 nM

## CCOC(=O)CCCOc1c(OC)cc(Cc2cnc(N)nc2N)cc1OC
  XC50: 778 nM

## COc1ccc2nc(SC(C)C(=O)c3c[nH]c4ccccc34)[nH]c2c1 (stereo not given)
  XC50: 1280 nM

## Cn1nccc1C(=O)NCCNCc1ccc(-c2cccc(-c3nc4cc(C(F)(F)F)ccc4[nH]3)c2)cc1
  XC50: 117 nM

## COc1ccc(Oc2ccc(-c3c(O)cc(C)nc3C)cc2)cc1
  XC50: 612 nM

## Oc1ccc2[nH]cc(C3CCN(CCCNCc4ccc(-c5ccccc5)cc4)CC3)c2c1
  XC50: 725 nM

## N#Cc1cccc(C(=O)NC2CCN(CCCCCNC(=O)/C=C/c3ccc(Cl)c(Cl)c3)CC2)c1
  XC50: 876 nM

## CC1(C)[C@H]2CC[C@@H](CNc3nc(NCCc4c[nH]cn4)nc(Nc4ccc(Oc5ccccc5)cc4)n3)[C@@H]1C2
  XC50: 672 nM

## O=C(/C=C/c1ccc2ccccc2c1)NCCCCCN1CCC(c2c[nH]c3ccccc23)CC1
  XC50: 1220 nM

## C[C@@H](Oc1cc(-n2cnc3cc(SCCN4CCN(C)CC4)ccc32)sc1C(N)=O)c1ccccc1Cl
  XC50: 507 nM

## CC(=O)c1cccc(NC(=O)NC2CCN(c3ccnc(Nc4ccc(F)cc4)n3)C2)c1 (stereo not given)
  XC50: 650 nM

## O=S(=O)(c1cccc(C(F)(F)F)c1)N1CCC(CO)(Cc2cccc(C(F)(F)F)c2)CC1
  XC50: 964 nM

## Cc1noc(C)c1S(=O)(=O)N(C)Cc1ccc(-c2ccc(Cl)cc2)o1
  XC50: 362 nM

## COc1ccc2nc(C)cc(NC3Cc4ccccc4C3)c2c1
  XC50: 839 nM

## CCCCCC(=O)NCC(NCCCNc1cc(=O)c2ccccc2[nH]1)c1cc(Br)cc(Br)c1 (stereo not given)
  XC50: 652 nM

## CC(CNC(=N)c1cccc(C(=N)NCC(C)Oc2cccc(C3CCCCC3)c2)n1)Oc1cccc(C2CCCCC2)c1 (stereo not given)
  XC50: 917 nM

## CC[C@H]1CN2CC[C@H]1C[C@H]2[C@H](O)c1cc(-c2ccccc2C)nc2ccc(OC)cc12
  XC50: 195 nM

## Cc1cccc2nc(-c3cccc(-c4ccc(NC(=O)c5ccc(=O)[nH]n5)cc4)c3)[nH]c12
  XC50: 857 nM

## Cc1cccc2nc(-c3cccc(-c4ccc(NC(=O)Nc5ccc(Cl)cc5)cc4)c3)[nH]c12
  XC50: 199 nM

## CCCCN1CCN(CCCCNc2c3ccccc3nc3ccccc23)CC1
  XC50: 167 nM

## COc1ccc(S(=O)(=O)NCCC2CCN(CCCCCNC(=O)C=Cc3ccc(Cl)c(Cl)c3)CC2)cc1
  XC50: 957 nM
